Data published in US20040110718A1, “Anti-HCV nucleoside derivatives” (priority 2000, published 2004).
Like-named read-outs stand apart in the source and are kept apart here.

What was measured:
[1] = test system: HCV replicon RNA replication; test: HCV replicon assay (quantification of replicon RNA, Northern blot / Taqman kinetic PCR); assay type: cell-based; conditions: Hepatitis C virus, Huh-7, 72 h
Description: Assay Method: The activity of the compounds was assayed using an adaptation of the method reported by Lohmann et al [V. Lohmann et al., Science, 1999, 285, 110-113].
The HCV replicon-containing cell line is used for the identification of small molecules that are able to inhibit the replication of the replicon RNA. Since the replicon RNA replication mimics the replication of the HCV RNA in infected hepatocytes, it is believed that those small molecules that have the above property are interesting for further development as anti-HCV drugs.
The inhibition of the HCV replicon RNA replication will lead to a decrease of the replicon RNA in the cell, which can be measured using a method that specifically quantifies this RNA.
Northern blot: One method for quantification of this RNA uses the standard Northern blot known to any person skilled in the art.
Kinetic PCR: A second assay for the quantification of replicon RNA is based on the amplification of the replicon RNA that remains in the cell, after incubation of the cells with a proper concentration of the small molecules. This method involves the reverse transcription of the replicon RNA to the corresponding complementary DNA (cDNA), followed by amplification of the cDNA using the Taqman Kinetic PCR technology (PE Biosystems). This consists of hybridisation of the cDNA with a complementary reporter oligonucleotide (probe), containing a combined fluorescent dye and a quencher dye. Amplification of the DNA sequence containing the hybridised reporter probe, using flanking oligonucleotide primers will lead to the separation of the fluorescent dye from the quencher dye. This will result in an increase of the fluorescence during each amplification cycle.
The neomycin phosphotransferase gene sequence that is present in the replicon RNA was chosen for amplification using specifically designed oligonucleotide primers. To control for (a) cell number that can vary depending on the toxicity or cytostatic effect of the small molecules, and (b) for errors during total RNA extraction, amplification of the host β-actin gene is used for normalisation.
The accumulation of the PCR products during the reaction is monitored directly by measuring the increase in fluorescence of the reporter dye. The amount of HCV replicon RNA (and β-actin RNA) originally present in the total RNA extracted from the cells is then expressed as a threshold cycle, e.g. the cycle at which there is a statistically significant increase in the fluorescence above the background.
For this procedure, HCV replicon-containing human hepatoma Huh7 cells (9-13) in growth medium (DMEM) containing 5% FCS are plated in a 96-well plate at 5×10^3 cells per well, and the plate incubated overnight. 24 hours later, different dilutions in 0.1 ml growth medium of chemical compounds were added to the wells, and the plate further incubated at 37° C. for three days. Total RNA coming from each well is extracted using the RNeasy™ procedure (Qiagen manufacturer instructions), and the total RNA is eluted in a final volume of 0.13 ml. Next, a 2 μl sample of the total RNA is used for convertion into cDNA using a reverse transcription (RT) step. A RT mastermix containing 1 μl 10× Taqman RT buffer, 2.2 μl 25 mM MgCl2 (5.5 mM final conc.), 2 μl dNTP mix (500 μM each), 0.5 μl random hexamer primers (2.5 μM), 0.2 μl RNase inhibitor (0.4 u/μl ), 0.25 μl RT (1.25 u/μl ), 1.85 μl H2O, was distributed in a 96-well plate and 2 μl total RNA was added to each well.
The RT reaction is performed by incubation of the plate 10 min at 25° C., 30 min at 48° C., 5 min at 95° C. and cooling to 4° C. The cDNA samples are then stored at −20° C. or directly used for the PCR reaction. […]

[2] = HCV replicon-containing human hepatoma Huh7 cells (9-13), three days incubation, concentration reducing replicon RNA levels by 50%, read-out: IC50

melting point	SMILES	IC50 [1, 2] [µM]	other results
–	OC[C@H]1O[C@@H](n2cnc3c(N4CCc5ccccc5C4)ncnc32)[C@H](O)[C@@H]1O [Example 57, 9-(β-D-Ribofuranosyl)-6-(1,2,3,4-tetrahydro-2-isoquinolyl)purine]	0.1	–
192 to 195 °C	Nc1ncnc2c1nc(NCCc1ccccc1)n2[C@H]1C[C@H](O)[C@@H](CO)O1	–	–
159 to 161 °C	Nc1ncnc2c1nc(NCCCCCCc1ccccc1)n2[C@H]1C[C@H](O)[C@@H](CO)O1	–	–
–	OC[C@H]1O[C@@H](n2cnc3c(Cl)ncnc32)[C@H](O)[C@@H]1O [Example 19, 6-Chloro-9-(β-D-ribofuranosyl)purine]	–	IC50 [1]: 14 µM
194 to 195 °C	O=c1ccn([C@@H]2O[C@H](CO)[C@@H](O)[C@H]2Br)c(=O)[nH]1	–	–
190 °C	Nc1ncnc2c1nc(NCCCCc1ccccc1)n2[C@@H]1O[C@H](CO)[C@@H](O)[C@H]1O	–	–
180 to 183 °C	Nc1ncnc2c1nc(NCCCc1ccccc1)n2[C@@H]1O[C@H](CO)[C@@H](O)[C@H]1O	–	–
164 to 168 °C (dec.)	Nc1ncnc2c1nc(NCCc1ccc(Cl)cc1Cl)n2[C@@H]1O[C@H](CO)[C@@H](O)[C@H]1O	–	–
–	OC[C@H]1O[C@@H](n2cnc3c(-n4cncn4)ncnc32)[C@H](O)[C@@H]1O [Example 112, 9-(β-D-Ribofuranosyl)-6-(1,2,4-triazol-1-yl)purine]	4.4	–
140 to 150 °C	Nc1ncnc2c1nc(NCc1cccc3ccccc13)n2[C@@H]1O[C@H](CO)[C@@H](O)[C@H]1O	–	–
148 to 156 °C (dec.)	Nc1ncnc2c1nc(NCCc1c[nH]cn1)n2[C@@H]1O[C@H](CO)[C@@H](O)[C@H]1O	–	–
–	OC[C@H]1O[C@@H](n2cnc3c(-n4ccnc4)ncnc32)[C@H](O)[C@@H]1O [Example 111, 6-(1-Imidazolyl)-9-(β-D-ribofuranosyl)purine]	6.2	–
210 to 215 °C	Nc1ncnc2c1nc(NCCN1CCOCC1)n2[C@@H]1O[C@H](CO)[C@@H](O)[C@H]1O	–	–
206 to 207 °C	O=c1ccn([C@@H]2O[C@H](CO)[C@@H](O)[C@H]2Cl)c(=O)[nH]1	–	–
155 to 158 °C (dec.)	Nc1ncnc2c1nc(NCCc1ccc(Cl)cc1)n2[C@@H]1O[C@H](CO)[C@@H](O)[C@H]1O	–	–
187 to 190 °C	Nc1nc(-c2ccccc2)c2ncn([C@@H]3O[C@H](CO)[C@@H](O)[C@H]3O)c2n1	–	–
–	N=c1c2ncn([C@@H]3O[C@H](CO)[C@@H](O)[C@H]3O)c2ncn1Cc1ccccc1 [Example 93, 1-Benzyl-6-imino-9-(β-D-ribofuranosyl)purine]	4.5	–
–	Nc1ncnc2c1nc(Br)n2[C@@H]1O[C@H](CO)[C@@H](O)[C@H]1O [Example 10, 8-Bromoadenosine]	–	IC50 [1]: 3.6 µM
203 to 205 °C	Nc1ncnc2c1nc(NCCC1CCCCC1)n2[C@@H]1O[C@H](CO)[C@@H](O)[C@H]1O	–	–
114 to 115 °C	OC[C@@H]1O[C@H](n2cnc3c(-n4cccc4)ncnc32)[C@@H](O)[C@H]1O	–	–
198 to 201 °C	Nc1ncnc2c1nc(NCCCc1ccccc1)n2[C@H]1C[C@H](O)[C@@H](CO)O1	–	–
207 to 209 °C (dec.)	Nc1ncnc2c1nc(N1CCCCC1)n2[C@@H]1O[C@H](CO)[C@@H](O)[C@H]1O	–	–
–	Nc1ccn([C@@H]2O[C@H](CO)[C@@H](O)C2(F)F)c(=O)n1 [Example 243, 1-(2-deoxy-2,2-difluoro-β-D-erythropentofuranosyl)cytosine]	0.07	–
117 to 124 °C (dec.)	Cc1ccc(CCNc2nc3c(N)ncnc3n2[C@@H]2O[C@H](CO)[C@@H](O)[C@H]2O)cc1	–	–
165 to 167 °C	Nc1ncnc2c1nc(NCCCCCCc1ccccc1)n2[C@@H]1O[C@H](CO)[C@@H](O)[C@H]1O	–	–

melting point	SMILES	IC50 [1, 2] [µM]	other results
175 to 176 °C	OC[C@@H]1C[C@@H](O)[C@H](n2cnc3c(-n4cccc4)ncnc32)O1	–	–
–	Nc1ccn([C@H]2O[C@@H](CO)[C@H](O)[C@@H]2O)c(=O)n1 [Example 244, L-cytidine]	10	–
–	O=c1[nH]/c(=N/O)ccn1[C@@H]1O[C@H](CO)[C@@H](O)[C@H]1O [Example 239, 4-oximino-1-(β-D-ribofuranosyl)pyrimidin-2(1H)-one]	1.3	–
118 to 120 °C	CN(CCc1ccccc1)c1nc2c(N)ncnc2n1[C@@H]1O[C@H](CO)[C@@H](O)[C@H]1O	–	–
–	OC[C@H]1O[C@@H](n2cnc3c(N4CCCC4)ncnc32)[C@H](O)[C@@H]1O [Example 77, 6-(1-Pyrrolidinyl)-9-(β-D-ribofuranosyl)purine]	2.6	–
–	O=c1[nH]c(=O)n([C@@H]2O[C@H](CO)[C@@H](O)[C@H]2O)cc1F [Example 24, 5-Fluorouridine]	1.4	–
–	OC[C@H]1O[C@@H](n2cnc3c(-n4cccn4)ncnc32)[C@H](O)[C@@H]1O [Example 113, 6-(1-Pyrazolyl)-9-(β-D-ribofuranosyl)purine]	4.4	–
168 to 171 °C	Nc1ncnc2c1nc(NCCCCc1ccccc1)n2[C@H]1C[C@H](O)[C@@H](CO)O1	–	–
229 °C	OC[C@H]1O[C@@H](n2cnc3c(N4CCCC4)nc(Cl)nc32)[C@H](O)[C@@H]1O	–	–
145 to 150 °C (dec.)	Nc1ncnc2c1nc(N1CCc3ccccc3C1)n2[C@@H]1O[C@H](CO)[C@@H](O)[C@H]1O	–	–
210 to 213 °C	Nc1ncnc2c1nc(N1CCOCC1)n2[C@@H]1O[C@H](CO)[C@@H](O)[C@H]1O	–	–
212 to 213 °C	OC[C@H]1O[C@@H](n2cnc3c(-n4cccc4)ncnc32)[C@@H](O)[C@@H]1O	–	–
–	Nc1ccn([C@@H]2C[C@H](CO)[C@@H](O)C2(F)F)c(=O)n1 [Example 245, 1-[1(R)-2,2-difluoro-3(R)-hydroxy-4(R)-(hydroxymethyl)cyclopentyl]-4-amino-1H-pyrimindin-2-one]	2	–
–	CSc1ncnc2c1ncn2[C@@H]1O[C@H](CO)[C@@H](O)[C@H]1O [Example 16, 6-Methylthio-9-(β-D-ribofuranosyl)purine]	0.08	–
–	OC[C@H]1O[C@@H](n2cnc3c(-n4cccc4)ncnc32)[C@H](O)[C@@H]1O [Example 105, 6-(1-Pyrrolyl)-9-(β-D-ribofuranosyl)purine]	0.1	–
–	C#CCNc1ncnc2c1ncn2[C@@H]1O[C@H](CO)[C@@H](O)[C@H]1O [Example 81, 6-(2-Propynyl)amino-9-(β-D-ribofuranosyl)purine]	3.8	–
–	CN(C)c1ncnc2c1ncn2[C@@H]1O[C@H](CO)[C@@H](O)[C@H]1O [Example 1, 6-Dimethylamino-9-(β-D-ribofuranosyl)purine]	0.6	–
180 to 181 °C	CCc1cn([C@@H]2O[C@H](CO)[C@@H](O)[C@H]2O)c(=O)[nH]c1=O	–	–
235 to 237 °C (dec.)	Nc1ncnc2c1nc(NCc1cccnc1)n2[C@@H]1O[C@H](CO)[C@@H](O)[C@H]1O	–	–
262 to 265 °C (dec.)	Nc1ncnc2c1nc(NCCc1ccc(O)cc1)n2[C@@H]1O[C@H](CO)[C@@H](O)[C@H]1O	–	–
225 to 228 °C	Cn1cccc1CCNc1nc2c(N)ncnc2n1[C@@H]1O[C@H](CO)[C@@H](O)[C@H]1O	–	–
157 to 163 °C (dec.)	Nc1ncnc2c1nc(NCCc1ccc(S(N)(=O)=O)cc1)n2[C@@H]1O[C@H](CO)[C@@H](O)[C@H]1O	–	–
220 to 223 °C (dec.)	Nc1ncnc2c1nc(N1CCN(c3ccccc3)CC1)n2[C@@H]1O[C@H](CO)[C@@H](O)[C@H]1O	–	–
234 to 237 °C (dec.)	C=CCNc1nc2c(N)ncnc2n1[C@@H]1O[C@H](CO)[C@@H](O)[C@H]1O	–	–
132 to 134 °C	Nc1ncnc2c1nc(NCc1ccccc1)n2[C@H]1C[C@H](O)[C@@H](CO)O1	–	–
